Results on 13 molecules are retold here after patent publication US20240041813A1, “VERY-LONG-CHAIN POLYUNSATURATED FATTY ACIDS, ELOVANOID HYDROXYLATED DERIVATIVES, AND METHODS OF USE” (priority 2020, published 2024).

“Also recorded” adds a separate entry of the source.

Data set [1] has as its system ACE2. The data set is described as follows: Rat cornea alkali burn: ACE2 abundance by Jess capillary-based Western Blot. Format: in vivo. Particulars: rat cornea after alkali burn, eye drops 20 μl/eye, 3 times/day for 14 days, day 14. The text has this: Sprague-Dawley rats (8-week-old male) were obtained from Charles River Laboratories (Wilmington, MA, USA) and kept at the Animal Care of the Neuroscience Center of Excellence, Louisiana State University Health (LSUH; New Orleans, LA, USA). All animals were handled in compliance with the guidelines of the ARVO Statement for the Use of Animals in Ophthalmic and Vision Research, and the experimental protocol was approved by the Institutional Animal Care and Use Committee (IACUC) at LSUH.
(§1) The rats were anesthetized by intraperitoneal injection of Ketamine (50-100 mg/kg) plus xylazine (5-10 mg/kg). A 4 mm diameter filter paper soaked in 1 N NaOH was placed on the central cornea of the right eye for 45 seconds, and then the eye was thoroughly washed with […] of saline. After injury, the rats were randomly divided into five treatment groups: vehicle; lipoxin A4 (LXA4) from Cayman Chemical (Ann Arbor, MI, USA); R,R Resolvin D6 isomer (RvD6i), R,R neuroprotection D (NPD1), and elovanoid (ELV)-N32. All lipid solutions were prepared at the final concentration of […] using PBS with the minimal contamination of ethanol by evaporating the ethanol and immediately dissolve the lipids in PBS, then vortex well for 2 min. Topical administration (20 μl) was done 3×/day for 14 days. The experiments were double-blinded with the lipid mediators coded during the whole experiments. At the end of the study, when all data was collected, the code was opened.
Briefly, samples were lysed with RIPA buffer containing a protease inhibitor cocktail (Sigma, Cat. P8340). Cell debris was removed after 10 min centrifugation at 16,000×g. Protein concentration was determined by BCA assay (Thermo Fisher Scientific, Cat. 23225) and 1 μg used/reaction. Fluorescent Master Mix was mixed with 40 mM DTT, and the mixture was added to each sample to provide a denaturing and reducing environment. Samples were heated at 95° C./5 min, and 3 μL of each sample were loaded. The 12-230 kDa cartridge (Protein Simple—#SM-W004) was used. Primary antibodies were diluted in antibody diluent 2 buffer (Protein Simple, #042-203) while the working solution of secondary antibodies was provided by the company (Protein Simple, #042-206). Then, the filled plate was spin-down for 10 min at 1,000×g to remove bubbles and plate, and capillaries were loaded into the Jess machine. For data analysis, the area of spectra that matched the molecular weight of the target protein was used. To reduce the coefficient variant, we analyzed the GAPDH for each capillary. The ratio of the targeted protein to GAPDH was used for statistical comparisons. For visualization, the artificial lanes generated from spectra volume was used.
In general terms: Immunoblotting shows a protein as a band on a membrane.

The subject of data set [2] is human corneal epithelial cells (HCEC). The data set is described as follows: HCEC challenged with IFNγ: SASP secretome (β-Gal staining). The class given is cell-based. Particulars: HCEC 24 h after IFN-γ challenge.
The test system of another data set is injured rat cornea. The data set is described as follows: Rat cornea alkali burn: corneal RNA-seq, cytokine storm, NFkB/inflammation, senescence, integrin and protease genes. Format: in vivo. Particulars: for availability of ACE2, TMPRSS2 and Furin increased after alkali burn: rat cornea after alkali burn, RNA-seq, ACE2 and Furin confirmed by JESS (Example 15). On the procedure:
as §1
(§2) Injured corneas (n=5/condition) were harvested and homogenized with TRIzol (Thermo Fisher Scientific) on ice with a glass Dounce homogenizer. RNA sequencing was performed as described^14. Briefly, after mRNA extraction and determination of purity, 8 ng of total RNA was reverse transcribed, and total cDNAs were amplified using ISPCR primer, and the library was made with the Nextera XT DNA library preparation kit (Illumina, San Diego, CA, USA). The libraries were pooled with the same molarity and sequenced using the NextSeq 500/550 High Output Kit v2 (75 cycles, Illumina). After demultiplexing, RNA-seq data were aligned to the Rattus Norvegicus reference genome (.ensembl.org/pub/release-98/fasta/rattus_norvegicus/dna/) using the Subread package v2.0.1 alignment function39. The BAM files for sequencing data alignment were counted using featureCounts function of Subread tool^40 using the macOS Catalina. The raw count data were subjected to differential gene expression analysis using DESeq2 package for R^41 with the vehicle group as reference. The adjusted p-values were named as the false discover rate (FDR).

The test system of the next data set is Cdkn2a (p16INK4a). The data set is described as follows: HCEC challenged with IFNγ: Cdkn2a gene expression. Format: cell-based, human. Particulars: IFNγ 100 ng/ml. The text has this: All experiments with human corneal epithelial cells were approved by the Institutional Review Board of LSUHNO and conducted in accordance with NIH guidelines. HCEC were kept frozen in the laboratory at passage 2544. Cells were maintained in keratinocyte growth (KGM) medium containing the keratinocyte basal medium (KBM) (Lonza: CC-3101) supplemented with bovine pituitary extract (BPE), hEGF, Insulin, Hydrocortisone and Gentamicin Sulfate-Amphotericin (GA-1000) (Lonza, Cat. CC-4131). For all experiments, cells were seeded at 30,000 cells/cm2.
(§3) For screening the stimulation of receptor ACE2 by cytokines, the HCEC were cultured with KGM until 50-60% confluence. Then, changed to KBM containing IL-1β, -2, -6 and 8, IFN-α, -ε, and -γ or TNFα at 1, 10 or 100 ng/ml. The cells were harvested after 6 hours and analyze for the gene expression of Ace2. In other experiments, HCEC were stimulated with IFNγ, and thereafter, lipid mediators were added. For the Alexa 594-conjugated RBD binding, IFNγ was used as a cytokine trigger. At 12 hours after cytokine exposure and lipid mediator treatments, […] of labeled RBD was added to the medium. The evaluation of RBD binding was conducted 24 hours after.
Quantitative PCR was performed with the Biomark HD system (Fluidigm, San Francisco, CA, USA). Briefly, 200 ng of RNA was reverse-transcribed using iScript Reverse Transcription Supermix (Bio-Rad), and the cDNA was pre-amplified using the PreAmp Master Mix (PN 100-5580; Fluidigm). The cDNA was then subjected to Exonuclease I treatment and diluted 5 times in TE Buffer. The qPCR reaction mixture and primer reaction mixture were made and loaded into the Biomark 96.96 IFC™ (Integrated Fluidic Circuit). The enzyme reaction was mixed using Juno™ Controller (Fluidigm) and run using the cycling program of (i) 70° C. for 40 minutes followed by 60° C. for 30 seconds, (ii) hot start for 1 minute at 95° C., (iii) 30 cycles of denaturation at 96° C. for 5 seconds, and annealing at 60° C. for 20 seconds, and (iv) melting curves between 60° C. and 95° C. with 1° C. increments/3 seconds. The Ct value of target genes was normalized to the house-keeping genes Gapdh, Hprt1, and Tfrc before normalized to the vehicle group. Relative fold changes from the ΔΔCT calculation was used to make the graph.

Data set [3] has as its system Alexa 594-RBD. The class given is in vivo. Particulars: rat cornea after alkali burn; 14 days treatment; Alexa 594-RBD 1 μg/eye, 3 times at day 15, examined a day later.
In data set [4] the test system is ACE2. As to the kind of experiment: Rat cornea alkali burn: corneal RNA-seq, Ace2 gene expression. Format: in vivo. Particulars: rat cornea after alkali burn, eye drops 3 times/day for 14 days, RNA-seq day 14. On the procedure:
as §1, §2

Data set [5] deals with receptor-binding domain (RBD) of the SARS-CoV-2 spike. Format: cell-based, human.
The subject of another data set is human alveolar cells. The data set is described as follows: Fate of added VLC-PUFAs in human bronchiole/alveoli cell cultures (LC-MS/MS). Particulars: human lung cell cultures; paired with FA18:1 or FA18:0.
The subject of data set [6] is ACE2. As to the kind of experiment: Cytokine screening for stimulation of Ace2 in HCEC (dd-PCR). The class given is cell-based, human. Particulars: cytokine at 1, 10, and 100 ng/mL, 6 hours.
Data set [7] relates to Alexa 594-RBD. As to the kind of experiment: HCEC challenged with IFNγ: Alexa 594-RBD binding (unbiased imaging, Imaris). The class given is cell-based, human. Particulars: IFNγ 100 ng/ml and lipid mediators 200 nM for 12 h, images 24 h after RBD. Here is the method: as §3
Twenty-four hours after Alexa 594-RBD was added to the HCEC, the cells were washed with PBS (3×/5 min) and fixed with 4% paraformaldehyde for 30 minutes at RT. The HCEC were washed 2× with PBS and stained with Hoechst 33342 Solution (ThermoFisher Scientific, Cat. 62249) for 30 minutes at RT. Next, the HCEC were washed 2× with PBS before imaging. For unbiased data collection, 7 designated areas were defined in each well (FIG. 63) and captured with an Olympus FV3000 confocal laser scanning microscopy under “Multi Area Time Lapse” (MATL) mode. All images were acquired with the same parameters and Z-section range, converted and inputted in the Imaris software version 9.5.1. The threshold for the control images was defined by the HCEC without Alexa 594-conjugated RBD of S protein and using it as a threshold filter for the Imaris batch image processing function. The sum of total intensity for each image was used to evaluate the binding efficiency.

As for `CCCCC[C@@H](O)/C=C/C=C\C=C\C=C\[C@@H](O)[C@@H](O)CCCC(=O)O` [LXA4, reference compound], the “ACE2 abundance (protein, normalized to GAPDH)” value in the data set with ACE2 [1] is recorded as “decrease”; with ACE2 [1] (listed as Lipoxin A4), “downregulates”. Also, the “senescence programming genes and SASP secretome activation (β-Gal)” value in data set [2] is recorded as “not”. Moreover, the “availability of ACE2, TMPRSS2 and Furin increased after alkali burn” value in the data set on injured rat cornea was “remarkable blocked”; in the data set on injured rat cornea (listed as Lipoxin A4) it was “downregulates”. For the same molecule, the “Il6 and Vegfa expression” value with injured rat cornea (rat cornea, RNA-seq 14 days after injury) is “reduced”. In the data set with Cdkn2a (p16INK4a), the Cdkn2a activation result is “does not”. Also, in the data set with Alexa 594-RBD [3], the “binding of Alexa 594-RBD to injured cornea” value is on record as “decrease; also recorded: counteracted; also recorded: significant effect”. The results for the “Ace2 gene expression levels” value with ACE2 [4] and with ACE2 [4] (listed as Lipoxin A4) were “decrease” and “downregulates”, respectively.
As to `CC/C=C\C/C=C\C/C=C\C/C=C\C/C=C\C/C=C\CCCCCCCCCCCCCCC(=O)O` [34:6, (16Z,19Z,22Z,25Z,28Z,31Z)-tetratriaconta-16,19,22,25,28,31-hexaenoic acid], the “RBD protein internalization (RBD located below the membrane line)” value in data set [5] is given as “decrease; also recorded: reduces”. In addition, the “incorporation in phosphatidylcholine molecular species” value in the data set with human alveolar cells is on record as “incorporated”.
For the molecule TNFα, in data set [5], the “internalized RBD signal” value is reported as “increased”. The “Ace2 expression (dd-PCR)” value with ACE2 [6] is recorded as “no significant increase”.
Take `CC/C=C\C/C=C\C/C=C\C/C=C\C/C=C\C/C=C\CCCCCCCCCCCCC(=O)O` [32:6, (14Z,17Z,20Z,23Z,26Z,29Z)-dotriaconta-14,17,20,23,26,29-hexaenoic acid]: the “RBD protein internalization (RBD located below the membrane line)” value in data set [5] is reported as “decrease; also recorded: reduces”. In the data set on human alveolar cells, the “incorporation in phosphatidylcholine molecular species” value is recorded as “incorporated”.
Consider IL1β, for which, in [5], the “internalized RBD signal” value is “increased”. Also, in the data set with ACE2 [6], the “Ace2 expression (dd-PCR)” value is recorded as “no significant increase”.
In the case of `CC/C=C\C[C@H](O)/C=C/C=C\C/C=C\C/C=C\C=C\[C@@H](O)CCC(=O)O` [RvD6, reference compound], in the data set with Alexa 594-RBD [7], the “IFNγ-stimulated Alexa 594-RBD binding” value is reported as “decrease”.
Take IL8: the “Ace2 expression (dd-PCR)” value in the data set on ACE2 [6] was “no significant increase”.
Take `CC/C=C\C[C@H](O)C#C/C=C/C=C/[C@H](O)C/C=C\C/C=C\CCCCCCCCCCCCC(=O)OC` [ELV 32(AC) acetylenic methyl ester, methyl (14Z,17Z,20R,21E,23E,27S,29Z)-20,27-dihydroxydotriaconta-14,17,21,23,29-pentaen-25-ynoate]: in data set [5], the “RBD of the SARS-CoV-2 spike entrance / internalized RBD” value is reported as “downregulated”.
Turning to `CC/C=C\C[C@H](O)\C=C/C=C/C=C/[C@H](O)C/C=C\C/C=C\CCC(=O)O` [NPD1], the “ACE2 abundance (protein, normalized to GAPDH)” value in the data set with ACE2 [1] is “failed to decrease; also recorded: no effect”. Besides, the “senescence programming genes and SASP secretome activation (β-Gal)” value in data set [2] is listed as “blocked”. For the same molecule, the “IFNγ-stimulated Alexa 594-RBD binding” value in the data set on Alexa 594-RBD [7] is “decrease; also recorded: attenuated”. Further, the Cdkn2a activation entry with Cdkn2a (p16INK4a) is “decrease”. In addition, in the data set with Alexa 594-RBD [3], the “binding of Alexa 594-RBD to injured cornea” value is “fails; also recorded: did not have an effect; also recorded: failed to decrease”.
Turning to IL6, in the data set on ACE2 [6], the “Ace2 expression (dd-PCR)” value is “no significant increase”.
For the molecule `CC/C=C\C[C@H](O)\C=C/C=C/C=C/[C@H](O)C/C=C\C/C=C\CCCCCCCCCCCCC(=O)OC` [ELV32 methyl ester, methyl (14Z,17Z,20R,21E,23E,25Z,27S,29Z)-20,27-dihydroxydotriaconta-14,17,21,23,25,29-hexaenoate], the “RBD of the SARS-CoV-2 spike entrance / internalized RBD” value in [5] is reported as “downregulated”.

B1: IFNε (protein, UniProt Q86WN2 22-208, looked up)
Interferon epsilon: LDLKLIIFQQRQVNQESLKLLNKLQTLSIQQCLPHRKNFLLPQKSLSPQQYQKGHTLAILHEMLQQIFSLFRANISLDGWEENHTEKFLIQLHQQLEYLEALMGLEAEKLSGTLGSDNLRLQVKMYFRRIHDYLENQDYSTCAWAIVQVEISRCLFFVFSLTEKLSKQGRPLNDMKQELTTEFRSPR
Consider B1, for which the “Ace2 expression (dd-PCR)” value in the data set on ACE2 [6] is on record as “no significant increase”.

B2: IFNγ (protein, UniProt P01579 24-161, looked up)
Interferon gamma: QDPYVKEAENLKKYFNAGHSDVADNGTLFLGILKNWKEESDRKIMQSQIVSFYFKLFKNFKDDQSIQKSVETIKEDMNVKFFNSNKKKRDDFEKLTNYSVTDLNVQRKAIHELIQVMAELSPAAKTGKRKRSQMLFRG
As to B2, the “Ace2 expression (dd-PCR)” value with ACE2 [6] was “activate”.
